RP-LC retention time data for 80 compounds are collected here from the METLIN SMRT retention time set (Domingo-Almenara et al. 2019).

A short description of the data set: gradient 5% acetonitrile 3 min, to 50% in 2 min, to 85% in 15 min, held 3 min, 100 µL/min. Conditions: column: Zorbax Extend-C18 2.1 x 50 mm; eluents: water / acetonitrile, 0.1% formic acid. The method in brief:
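Retention time was recorded from adduct peaks, which were picked computationally and each inspected manually. Pure standards ran in mixtures of ~100 molecules on HPLC coupled to a quadrupole time-of-flight mass spectrometer, in positive and negative ionization mode, through a Zorbax Extend-C18 column (2.1 × 50 mm, 1.8 μm) at 100 μL/min. Eluents were water and acetonitrile, each with 0.1% formic acid.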
Compound `COC(=O)c1ccc(NC(=O)N2CC(Oc3cccc(-c4nc(C)no4)c3)C2)cc1` came in with an RP-LC retention time of 883 s. With `CCCCCc1nnc(NC(=O)C2CC(=O)N(CCc3c[nH]c4ccc(C)cc34)C2)s1` (stereo not given) the figure was 873 s. Compound `Cc1ccc(N2CCN(c3nc(C(=O)O)cs3)CC2)cc1` registered an RP-LC retention time of 770 s.

Consider `O=S(=O)(c1ccccc1Br)N1CCc2nc(-c3ccccc3)ncc2C1`, for which the RP-LC retention time came to 1090 s. With `CCc1nc2c(c(=O)n1CC(=O)NCc1ccccc1F)CN(Cc1ccccc1)CC2` the figure was 649 s; with `Cn1c(=O)n([C@@H]2CCN(C(=O)C3CCC3)C2)c2ncccc21`, 639 s; with `CCc1ccc(Oc2cc(N3CCC(C(=O)NCCc4cccs4)CC3)ncn2)cc1`, 851 s.

`CCOC(=O)c1cnc2ccc(OCC)cc2c1NCCN(C)C` yielded an RP-LC retention time of 560 s. With `Cc1ccc(/C=N/NC(=O)c2ccccc2Oc2ccccc2)o1` the figure was 854 s; with `O=C(NC1CC(=O)N(Cc2ccccc2)C1)c1ccco1` (stereo not given), 667 s. With `CCOC(=O)Nc1ccc2nc(N3CCCCCC3)sc2c1` the figure was 798 s; with `COc1cc(OC)cc(C(=O)N2CCC(C(=O)NCCc3csc(-c4cccs4)n3)CC2)c1`, 792 s. With `CN(CC1CCOCC1)C(=O)Nc1ccc2c(c1)OCCO2` the figure was 670 s. `Cc1ccc(-c2nc3ccc(C)cn3c2Nc2ccccc2C)cc1` yielded an RP-LC retention time of 788 s. In turn, `CCCN1C(=O)c2cc(S(=O)(=O)N3CCOCC3)ccc2Oc2cccnc21` showed an RP-LC retention time of 926 s. With `COC(=O)c1ccc(NC(=O)N2CCCC2c2cc(C(C)C)on2)cc1` (stereo not given) the figure was 890 s. To `COc1ccc(Cl)cc1NC(=O)CSc1nc2nc(C)cc(C)n2n1` belongs 856 s; to `Cc1cc2c(c(=O)n(-c3ccccc3)c(=O)n2CC(=O)Nc2ccc(Cl)cc2)n1C`, 885 s. To `CCC1CN2C=NC(N3CCN(C(=O)Nc4ccc(OC)cc4C)CC3)=CC2=N1` (stereo not given) belongs 612 s. Regarding `CCC1Oc2ccc(S(=O)(=O)N3CCC(C(=O)Nc4cc(C)ccc4C)CC3)cc2NC1=O` (stereo not given), the RP-LC retention time is 837 s.

Compound `O=C(c1ccc(-c2cccs2)nc1)N1CCOCC1` registered an RP-LC retention time of 678 s. To `CCCc1nc(-c2c(C)cc(C)nc2NC(=O)c2ccccc2C(F)(F)F)no1` belongs 951 s; to `CCC(C(=O)Nc1cc(-c2cn3cccnc3n2)ccc1C)c1ccccc1` (stereo not given), 680 s. To `COc1ccc(OC)c(NC(=O)CSc2ccc(N3CCCC(C(=O)NC4CC4)C3)nn2)c1` (stereo not given) belongs 672 s; to `CCN1C(=O)NC(c2ccccc2C(F)(F)F)C2=C1CN(CCC(=O)NC1CC1)C2=O` (stereo not given), 605 s; to `CCc1nc2cc(-c3noc(CNC(=O)Cc4ccc(Cl)cc4)n3)ccc2o1`, 882 s. With `CCN1C(=O)c2cc(C(=O)NCCCc3ccccc3)nn2CC1(C)C(=O)NC1CCCC1` (stereo not given) the figure was 845 s; with `CN(C)c1nc(C(=O)N2CCN(c3cccc(Cl)c3)CC2)nc2c1cnn2C`, 818 s; with `COC(=O)c1ccccc1NC(=O)C1CCCN(c2nnc(C)c3c(C)n(-c4ccccc4)nc23)C1` (stereo not given), 834 s. In the case of `Cc1ccc(-c2ccc(N3CCCC(C(=O)Nc4ccc5c(c4)OCO5)C3)nn2)cc1` (stereo not given), the RP-LC retention time came to 753 s. To `Cn1nc(-c2nnc(-c3ccc(F)cc3)o2)c2c1CCN(S(=O)(=O)c1ccc(F)cc1)C2` belongs 903 s. The compound `Cc1nc(-c2cn(C)c3ncccc23)sc1C(=O)Nc1ccccc1F` displayed an RP-LC retention time of 922 s. With `CCC(=O)Nc1ccc(N(C)CCc2c(C)nn(C)c2C)c(C(=O)O)c1` the figure was 572 s; with `CCCCCNC(=O)C1CCN(c2ccc(Sc3cc(C)ccc3C)nn2)CC1`, 930 s.

`CCCn1cc(C2=CCN(S(=O)(=O)c3cccc(Cl)c3)CC2)c2cccnc21` came in with an RP-LC retention time of 1110 s. To `CC(C)(C)c1cc(N)n(C2CCS(=O)(=O)C2)n1` (stereo not given) belongs 623 s; to `Cc1cccc(N2CCN(c3ccc(SCC(=O)Nc4cccc(F)c4)nn3)CC2)c1`, 896 s; to `O=C(NCC#CCN1CCc2ccccc2C1)Nc1cccs1`, 557 s. To `Cc1sc(NC(=O)c2ccccc2)nc1-c1ccc2c(c1)N(C)C(=O)CO2` belongs 952 s; to `O=C(Cn1cccn1)N1CCN(c2cccc(Cl)c2Cl)CC1`, 782 s; to `CCCCCCNC(=O)C1CCCN(c2ncc(-c3ccc(F)cc3)cn2)C1` (stereo not given), 1160 s. To `CCCOCCOC(=O)C1=C(C)NC2=C(C(=O)C(C(=O)OC)C(C)C2)C1c1ccccc1F` (stereo not given) belongs 946 s; to `CCOC(=O)c1c(C)[nH]c(C)c1S(=O)(=O)N1CCC(C(=O)Nc2ccc3c(c2)OCO3)CC1`, 774 s. Compound `Cc1ccc(Cl)cc1N1CCN(C(=O)c2ccc(Cn3cncn3)cc2)CC1` registered an RP-LC retention time of 877 s.

Regarding `COc1ccc(-c2nc(C3CC(=O)N(Cc4ccccc4)C3)no2)cc1` (stereo not given), the RP-LC retention time was found to be 946 s. On to `Cc1nn(C)c(C)c1S(=O)(=O)N1CCC2(CC1)c1[nH]c3ccccc3c1CCN2C`, for which the RP-LC retention time was 668 s. Compound `CN1CCCN(C(=O)CN2CCCc3nc(C4CC4)ncc3C2=O)CC1` returned an RP-LC retention time of 570 s. To `CN(CCC#N)C(=O)Cn1nc(Cc2cccnc2)c2ccccc2c1=O` belongs 563 s; to `COc1ccc(OC)c(N2C=C(C#N)S(=O)(=O)c3ccc(C)cc32)c1`, 925 s. With `CCOC(=O)c1c(C)nc(C)c(C(=O)OCC)c1-c1cccnc1` the figure was 810 s; with `CC(=O)NCc1csc(C2CCCN(C(=O)c3cc(F)ccc3F)C2)n1` (stereo not given), 667 s.

As for `CCN(c1ccccc1)S(=O)(=O)c1ccc2c(c1)N(C(C)=O)CCCS2`, the RP-LC retention time was 937 s. With `COCCNC(=O)c1csc(N2CCN(c3ccc(OC)cc3)CC2)n1` the figure was 767 s; with `COc1ccccc1Cc1nc(-c2cn(-c3ccc(F)cc3)nn2)no1`, 1020 s; with `Cc1oc(-c2[nH]ncc2C(=O)N2CCCC2)cc1S(=O)(=O)NCc1ccc(F)cc1`, 709 s. With `OC[C@@H]1CN(Cc2ccncc2F)C[C@H]1c1nc(C2CC2)no1` the figure was 562 s; with `Fc1cccc(-c2noc(-c3ccc(N4CCN(c5ncccn5)CC4)nc3)n2)c1`, 1230 s; with `O=C(N1CCC(c2nnc(-c3ccc(F)cc3)o2)CC1)C1(c2ccccc2)CCOCC1`, 631 s. To `O=C(Cc1ccccc1Br)NC1CCN(c2cc(-c3ccc(Cl)cc3)[nH]n2)C1` (stereo not given) belongs 831 s; to `COc1cccc(CNC(=O)c2cc3c(=O)n(C)ccc3n2C)c1`, 663 s; to `COC(=O)c1cc(OC)c(OC)cc1NC(=O)C1Oc2ccccc2OC1C` (stereo not given), 1040 s.

In the case of `Cc1ccc(N2CCC(NC(=O)c3ccccc3)C2=O)cc1` (stereo not given), the RP-LC retention time came to 794 s. To `CCn1cnc2ccc(-c3noc(-c4cccc(Cl)c4)n3)cc21` belongs 861 s; to `CCCN(C)C(=O)c1ccc(-c2nnc3ccc(NC(=O)C4CCC4)cn23)cc1`, 760 s; to `Cc1ccccc1CNC(=O)C1CCN(S(C)(=O)=O)c2cc(Cl)ccc2O1` (stereo not given), 975 s. With `Cc1cc(C(=O)N2CCCC2Cc2noc(C3CCCC3)n2)n[nH]1` (stereo not given) the figure was 750 s; with `O=C(Nc1cc(F)c(F)c(F)c1)N1C[C@H]2C[C@H](C1)[C@H]1CCCC(=O)N1C2`, 717 s; with `CCn1cnc(S(=O)(=O)N2CCCC(C(=O)Nc3cccc(F)c3)C2)c1` (stereo not given), 760 s.

`CCOc1ccc(C2C(C(=O)OCCOC)=C(C)NC3=C2C(=O)CCC3)cc1OC` (stereo not given) had an RP-LC retention time of 700 s. The compound `Cn1c(=O)c2c(nc(Oc3ccccc3)n2C)n(C)c1=O` came in with an RP-LC retention time of 807 s. With `Cc1ccc(NC(=O)c2nc3nc(C)cc(C(F)F)n3n2)c(C)c1` the figure was 854 s; with `Cc1cccc(Cn2nc3ccc(S(=O)(=O)N4CCCCC4)cn3c2=O)c1`, 915 s. To `Cc1ccc(N2C(=O)N(CC(=O)N3CCCCC3C)C3CS(=O)(=O)CC32)cc1Cl` (stereo not given) belongs 851 s; to `CC1CC(C)CN(CCCNC(=O)CCCOc2cc(=O)n(C)c3ccccc23)C1` (stereo not given), 604 s. In the case of `CN(C)c1ccc(C(=O)NC2CCN(c3cc(-c4ccc(Cl)cc4)[nH]n3)C2)cc1` (stereo not given), the RP-LC retention time was 790 s. `Cc1[nH]c(-c2ccccc2)cc1C(=O)NC1CCCCC1` came in with an RP-LC retention time of 898 s. Turning to `Cc1ccccc1-c1nnc(CSc2nnc(NC(=O)c3cccc(F)c3)s2)o1`, the RP-LC retention time came out at 976 s. Consider `CCCCN(C)C(=O)c1c(C)oc2ccn(Cc3ccc(F)cc3)c(=O)c12`, for which the RP-LC retention time turned out to be 868 s. In the case of `COCc1cc(=O)n(CC(=O)N2CCN(c3ccc(F)cc3)CC2)c(N2CCOCC2)n1`, the RP-LC retention time amounted to 819 s. To `O=C(CN1CCN(C(=O)Nc2ccc(Br)cc2)CC1=O)NC1CCCCC1` belongs 735 s.
